In the NIST ThermoML archive (doi:10.1016/j.jct.2017.08.004):

Test: molar heat capacity at constant pressure
Details: 101.33 kPa

OC[C@@H](O)C(O)[C@H](O)CO [D-arabitol]
molar heat capacity at constant pressure [J/K/mol]
Details	Small sample (50 mg) DSC	relaxation calorimetry
1 K, Crystal	–	0.0009451
1.937 K, Crystal	–	0.004787
2 K, Crystal	–	0.005256
2.125 K, Crystal	–	0.006243
2.35 K, Crystal	–	0.008303
2.6 K, Crystal	–	0.01105
2.887 K, Crystal	–	0.01495
3 K, Crystal	–	0.01673
3.199 K, Crystal	–	0.02023
3.546 K, Crystal	–	0.02753
3.931 K, Crystal	–	0.03744
4 K, Crystal	–	0.04001
4.359 K, Crystal	–	0.05185
4.836 K, Crystal	–	0.07292
5 K, Crystal	–	0.08105
5.366 K, Crystal	–	0.1017
5.953 K, Crystal	–	0.1443
6 K, Crystal	–	0.1475
6.605 K, Crystal	–	0.205
7 K, Crystal	–	0.2508
7.334 K, Crystal	–	0.2964
8 K, Crystal	–	0.4038
8.14 K, Crystal	–	0.43
9 K, Crystal	–	0.6157
9.034 K, Crystal	–	0.6226
10 K, Crystal	–	0.8917
10.11 K, Crystal	–	0.9222
11.21 K, Crystal	–	1.313
12.44 K, Crystal	–	1.849
13.81 K, Crystal	–	2.558
15 K, Crystal	–	3.255
15.35 K, Crystal	–	3.473
17.03 K, Crystal	–	4.645
18.91 K, Crystal	–	6.093
20 K, Crystal	–	6.963
21.01 K, Crystal	–	7.823
23.33 K, Crystal	–	9.878
25 K, Crystal	–	11.45
25.91 K, Crystal	–	12.28
28.73 K, Crystal	–	15.02
30 K, Crystal	–	16.29
31.9 K, Crystal	–	18.17
35 K, Crystal	–	21.27
35.42 K, Crystal	–	21.72
39.33 K, Crystal	–	25.68
40 K, Crystal	–	26.29
43.65 K, Crystal	–	29.96
45 K, Crystal	–	31.26
48.46 K, Crystal	–	34.52
50 K, Crystal	–	36.09
53.77 K, Crystal	–	39.56
55 K, Crystal	–	40.76
59.7 K, Crystal	–	45.1
60 K, Crystal	–	45.36
65 K, Crystal	–	49.82
66.28 K, Crystal	–	51.01
70 K, Crystal	–	54.16
73.58 K, Crystal	–	57.16
75 K, Crystal	–	58.37
80 K, Crystal	–	62.48
81.67 K, Crystal	–	64.04
85 K, Crystal	–	66.48
90 K, Crystal	–	70.37
90.67 K, Crystal	–	71
95 K, Crystal	–	74.17
100 K, Crystal	–	77.87
100.64 K, Crystal	–	77.78
110 K, Crystal	–	85.02
110.77 K, Crystal	–	85.2
120 K, Crystal	–	91.85
120.77 K, Crystal	–	92.62
130 K, Crystal	–	98.42
130.79 K, Crystal	–	99.38
140 K, Crystal	–	104.78
140.95 K, Crystal	–	105.44
150 K, Crystal	–	110.97
151.07 K, Crystal	–	111.74
160 K, Crystal	–	117.04
161.18 K, Crystal	–	117.79
170 K, Crystal	–	123.02
171.3 K, Crystal	–	123.63
180 K, Crystal	–	128.94
181.38 K, Crystal	–	129.86
188.15 K, Crystal	120.48	–
189.15 K, Crystal	123.07	–
190 K, Crystal	–	134.84
190.15 K, Crystal	124.65	–
191.15 K, Crystal	125.58	–
191.48 K, Crystal	–	135.82
192.15 K, Crystal	126.38	–
193.15 K, Crystal	127.14	–
194.15 K, Crystal	128.51	–
195.15 K, Crystal	129.68	–
196.15 K, Crystal	130.93	–
197.15 K, Crystal	131.96	–
198.15 K, Crystal	132.82	–
199.15 K, Crystal	133.79	–
200 K, Crystal	–	140.73
200.15 K, Crystal	134.6	–
201.15 K, Crystal	135.54	–
201.59 K, Crystal	–	141.2
202.15 K, Crystal	136.28	–
203.15 K, Crystal	137.06	–
204.15 K, Crystal	137.97	–
205.15 K, Crystal	138.38	–
206.15 K, Crystal	139.19	–
207.15 K, Crystal	139.97	–
208.15 K, Crystal	140.52	–
209.15 K, Crystal	141.24	–
210 K, Crystal	–	146.63
210.15 K, Crystal	141.94	–
211.15 K, Crystal	142.48	–
211.7 K, Crystal	–	147.25
212.15 K, Crystal	142.99	–
213.15 K, Crystal	143.53	–
214.15 K, Crystal	144.41	–
215.15 K, Crystal	145.07	–
216.15 K, Crystal	145.48	–
217.15 K, Crystal	146.17	–
218.15 K, Crystal	147.07	–
219.15 K, Crystal	147.64	–
220 K, Crystal	–	152.57
220.15 K, Crystal	148.47	–
221.15 K, Crystal	149.24	–
221.79 K, Crystal	–	153.65
222.15 K, Crystal	149.98	–
223.15 K, Crystal	150.71	–
224.15 K, Crystal	151.3	–
225.15 K, Crystal	152.01	–
226.15 K, Crystal	152.68	–
227.15 K, Crystal	153.31	–
228.15 K, Crystal	153.85	–
229.15 K, Crystal	154.52	–
230 K, Crystal	–	158.55
230.15 K, Crystal	155.25	–
231.15 K, Crystal	155.76	–
231.88 K, Crystal	–	159.8
232.15 K, Crystal	156.46	–
233.15 K, Crystal	157.18	–
234.15 K, Crystal	157.71	–
235.15 K, Crystal	158.49	–
236.15 K, Crystal	159.12	–
237.15 K, Crystal	159.84	–
238.15 K, Crystal	160.39	–
239.15 K, Crystal	160.99	–
240 K, Crystal	–	164.59
240.15 K, Crystal	161.64	–
241.15 K, Crystal	162.22	–
241.88 K, Crystal	–	165.73
242.15 K, Crystal	162.77	–
243.15 K, Crystal	163.32	–
244.15 K, Crystal	163.71	–
245.15 K, Crystal	164.33	–
246.15 K, Crystal	165.01	–
247.15 K, Crystal	165.5	–
248.15 K, Crystal	166.22	–
249.15 K, Crystal	167	–
250 K, Crystal	–	170.71
250.15 K, Crystal	167.62	–
251.15 K, Crystal	168.09	–
252.02 K, Crystal	–	171.93
252.15 K, Crystal	168.72	–
253.15 K, Crystal	169.42	–
254.15 K, Crystal	170.21	–
255.15 K, Crystal	170.83	–
256.15 K, Crystal	171.49	–
257.15 K, Crystal	172.29	–
258.15 K, Crystal	172.95	–
259.15 K, Crystal	173.8	–
260 K, Crystal	–	176.9
260.15 K, Crystal	174.49	–
261.15 K, Crystal	175.07	–
262.08 K, Crystal	–	178.58
262.15 K, Crystal	175.71	–
263.15 K, Crystal	176.2	–
264.15 K, Crystal	176.94	–
265.15 K, Crystal	177.53	–
266.15 K, Crystal	177.9	–
267.15 K, Crystal	178.76	–
268.15 K, Crystal	179.47	–
269.15 K, Crystal	180.14	–
270 K, Crystal	–	183.17
270.15 K, Crystal	180.88	–
271.15 K, Crystal	181.55	–
272.1 K, Crystal	–	184.8
272.15 K, Crystal	182.34	–
273.15 K, Crystal	183.05	185.17
274.15 K, Crystal	183.84	–
275.15 K, Crystal	184.43	–
276.15 K, Crystal	185.01	–
277.15 K, Crystal	185.89	–
278.15 K, Crystal	186.82	–
279.15 K, Crystal	187.46	–
280 K, Crystal	–	189.54
280.15 K, Crystal	187.87	–
281.15 K, Crystal	188.79	–
282.15 K, Crystal	189.61	–
282.16 K, Crystal	–	190.77
283.15 K, Crystal	190.26	–
284.15 K, Crystal	190.76	–
285.15 K, Crystal	191.48	–
286.15 K, Crystal	192.29	–
287.15 K, Crystal	192.88	–
288.15 K, Crystal	193.55	–
289.15 K, Crystal	194.1	–
290 K, Crystal	–	196
290.15 K, Crystal	195.02	–
291.15 K, Crystal	195.84	–
292.15 K, Crystal	196.49	–
292.31 K, Crystal	–	197.61
293.15 K, Crystal	197.3	–
294.15 K, Crystal	198.27	–
295.15 K, Crystal	198.8	–
296.15 K, Crystal	199.7	–
297.15 K, Crystal	200.51	–
298.15 K, Crystal	201.09	201.35
299.15 K, Crystal	201.8	–
300 K, Crystal	–	202.57
300.15 K, Crystal	202.43	–
301.15 K, Crystal	203.27	–
302.15 K, Crystal	203.89	–
302.32 K, Crystal	–	203.84
303.15 K, Crystal	204.69	–
304.15 K, Crystal	205.64	–
305 K, Crystal	206.38	–
305.15 K, Crystal	206.52	–
306.15 K, Crystal	207.29	–
307.15 K, Crystal	207.99	–
308.15 K, Crystal	209.04	–
309.15 K, Crystal	210.24	–
310 K, Crystal	210.77	–
310.15 K, Crystal	211.11	–
311.15 K, Crystal	212.09	–
312.15 K, Crystal	213.04	–
313.15 K, Crystal	213.93	–
314.15 K, Crystal	214.62	–
315 K, Crystal	215.3	–
315.15 K, Crystal	215.49	–
316.15 K, Crystal	216.44	–
317.15 K, Crystal	217.32	–
318.15 K, Crystal	218.08	–
319.15 K, Crystal	218.98	–
320 K, Crystal	219.92	–
320.15 K, Crystal	219.94	–
321.15 K, Crystal	220.72	–
322.15 K, Crystal	221.63	–
323.15 K, Crystal	222.6	–
324.15 K, Crystal	223.41	–
325 K, Crystal	224.62	–
325.15 K, Crystal	224.24	–
326.15 K, Crystal	225.48	–
327.15 K, Crystal	226.61	–
328.15 K, Crystal	227.57	–
329.15 K, Crystal	228.54	–
330 K, Crystal	229.51	–
330.15 K, Crystal	229.69	–
331.15 K, Crystal	231.05	–
332.15 K, Crystal	232.16	–
333.15 K, Crystal	233.08	–
334.15 K, Crystal	234.14	–
335 K, Crystal	234.75	–
335.15 K, Crystal	235.21	–
336.15 K, Crystal	236.36	–
337.15 K, Crystal	237.46	–
338.15 K, Crystal	238.56	–
339.15 K, Crystal	239.77	–
340 K, Crystal	240.61	–
340.15 K, Crystal	240.89	–
341.15 K, Crystal	242.17	–
342.15 K, Crystal	243.41	–
343.15 K, Crystal	244.65	–
344.15 K, Crystal	245.91	–
345 K, Crystal	247.41	–
345.15 K, Crystal	247.41	–
346.15 K, Crystal	248.94	–
350 K, Crystal	255.58	–
394.05 K, Liquid	448.1	–
394.15 K, Liquid	448.11	–
395 K, Liquid	447.62	–
395.15 K, Liquid	447.51	–
396.15 K, Liquid	447.26	–
397.15 K, Liquid	446.68	–
398.15 K, Liquid	446.29	–
399.15 K, Liquid	446.43	–
400 K, Liquid	446.52	–
400.15 K, Liquid	446.4	–
401.15 K, Liquid	446.31	–
402.15 K, Liquid	446.59	–
403.15 K, Liquid	447.05	–
404.15 K, Liquid	446.97	–
405 K, Liquid	447.4	–
405.15 K, Liquid	447.29	–
406.15 K, Liquid	447.83	–
407.15 K, Liquid	447.84	–
408.15 K, Liquid	448.15	–
409.15 K, Liquid	448.6	–
410 K, Liquid	449.23	–
410.15 K, Liquid	448.95	–
411.15 K, Liquid	449.41	–
412.15 K, Liquid	449.97	–
413.15 K, Liquid	450.76	–
414.15 K, Liquid	451.47	–
415 K, Liquid	452.02	–
415.15 K, Liquid	452.79	–
416.15 K, Liquid	453.35	–
417.15 K, Liquid	453.87	–
418.15 K, Liquid	454.54	–
419.15 K, Liquid	456.24	–
420 K, Liquid	455.76	–
420.15 K, Liquid	456.5	–
421.15 K, Liquid	457.07	–
422.15 K, Liquid	457.63	–
423.15 K, Liquid	457.94	–
424.15 K, Liquid	458.28	–
